Reference: PubChem BioAssay AID624405 (Broad Institute, 2012)
Records with an inconclusive call do not appear.

Each compound was assayed on C2C12 myotubes + simvastatin, ATP luminescence, 48 h (assay: rescue of simvastatin-induced ATP loss – cell-based, C2C12 myotubes, ATP luminescence, cherry pick, dose response (AID 624405);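 also: myotubes are challenged with simvastatin at 10 µM to lower ATP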).
`COc1ccccc1NS(=O)(=O)c1cccc(NC(=O)c2nc3nc(C)cc(C)n3n2)c1` showed an AC40 of 8.63 µM. For `OC(c1cccc(OCc2ccccc2)c1)c1nnc(-c2ccccc2)o1` (stereo unspecified), the AC40 was 5.24 µM. Compound `C[C@H]1CN([C@@H](C)CO)C(=O)c2cc(C#Cc3ccncc3)cnc2O[C@@H]1CN(C)CC1CCCC1` has an AC40 of 4.52 µM. Compound `COc1ccc2c(Cl)c(-c3nnc(SCC(=O)c4ccccc4)n3C)sc2c1` has an AC40 of 1.13 µM. `C[C@@H]1CN([C@H](C)CO)C(=O)c2cc(NS(=O)(=O)c3ccc(Cl)cc3)ccc2O[C@@H]1CN(C)Cc1ccc(C(=O)Nc2ccccc2N)cc1` gave an AC40 of 11.3 µM. For `COc1cc2c(cc1OC)C(=O)CCS2`, the AC40 was 1.88 µM.
